From patent US20030237103A1, “Methods and compositions for pharmacological and toxicological evaluation of test agents” (priority 2002, published 2003)

Assays:
[1] = test system: Panel and outbred (CD-IGS) rat strains; assay: Proteinuria, glucose excretion and renal histology after cisplatin; assay type: in vivo; conditions: 5 mg/Kg cisplatin
[2] = test system: Panel and outbred (CD-IGS) rat strains; assay: Clinical chemistry endpoints of cisplatin-treated vs. vehicle rats; assay type: in vivo; parameters: T-test value AST / T-test value ALT: unit not given here; conditions: cisplatin 5 mg/Kg vs. vehicle

Compound: N.N.[Cl][Pt][Cl] [cisplatin]
- degree of proteinuria, glucose excretion and histologic damage to renal proximal tubules between the strains [1]: marked differences
- T-test value ALB ([2]; BNxF344 rats): 0.111
- T-test value ALP ([2]; BNxF344 rats): 0.157
- T-test value ALT ([2]; BNxF344 rats): 0.600
- T-test value ANION GAP ([2]; BNxF344 rats): 0.069
- T-test value AST ([2]; BNxF344 rats): 0.780
- T-test value BICARB ([2]; BNxF344 rats): 0.003
- T-test value BUN ([2]; BNxF344 rats): 0.002
- T-test value CA ([2]; BNxF344 rats): 0.642
- T-test value CHOL ([2]; BNxF344 rats): 0.001
- T-test value CREAT ([2]; BNxF344 rats): 0.001
- T-test value GGT ([2]; BNxF344 rats): 0.351
- T-test value GLOB ([2]; BNxF344 rats): 0.116
- T-test value GLU ([2]; BNxF344 rats): 0.477
- T-test value K ([2]; BNxF344 rats): 0.133
- T-test value NA ([2]; BNxF344 rats): 0.851
- T-test value PHOS ([2]; BNxF344 rats): 0.230
- T-test value TBILI ([2]; BNxF344 rats): 0.005
- T-test value TP ([2]; BNxF344 rats): 0.877
- T-test value TRIG ([2]; BNxF344 rats): 0.153
- T-test value ALB ([2]; CD-IGS rats): 0.096
- T-test value ALP ([2]; CD-IGS rats): 0.567
- T-test value ALT ([2]; CD-IGS rats): 0.732
- T-test value ANION GAP ([2]; CD-IGS rats): 0.440
- T-test value AST ([2]; CD-IGS rats): 0.433
- T-test value BICARB ([2]; CD-IGS rats): 0.436
- T-test value BUN ([2]; CD-IGS rats): 0.003
- T-test value CA ([2]; CD-IGS rats): 0.268
- T-test value CHOL ([2]; CD-IGS rats): 0.393
- T-test value CREAT ([2]; CD-IGS rats): 0.002
- T-test value GGT ([2]; CD-IGS rats): 0.351
- T-test value GLOB ([2]; CD-IGS rats): 0.750
- T-test value GLU ([2]; CD-IGS rats): 0.965
- T-test value K ([2]; CD-IGS rats): 0.465
- T-test value NA ([2]; CD-IGS rats): 0.095
- T-test value PHOS ([2]; CD-IGS rats): 0.943
- T-test value TBILI ([2]; CD-IGS rats): 0.742
- T-test value TP ([2]; CD-IGS rats): 0.080
- T-test value TRIG ([2]; CD-IGS rats): 0.133
- T-test value ALB ([2]; LEWxBN rats): 0.000
- T-test value ALP ([2]; LEWxBN rats): 0.001
- T-test value ALT ([2]; LEWxBN rats): 0.593
- T-test value ANION GAP ([2]; LEWxBN rats): 0.058
- T-test value AST ([2]; LEWxBN rats): 0.341
- T-test value BICARB ([2]; LEWxBN rats): 0.016
- T-test value BUN ([2]; LEWxBN rats): 0.000
- T-test value CA ([2]; LEWxBN rats): 0.333
- T-test value CHOL ([2]; LEWxBN rats): 0.000
- T-test value CREAT ([2]; LEWxBN rats): 0.000
- T-test value GGT ([2]; LEWxBN rats): 0.339
- T-test value GLOB ([2]; LEWxBN rats): 0.007
- T-test value GLU ([2]; LEWxBN rats): 0.024
- T-test value K ([2]; LEWxBN rats): 0.036
- T-test value NA ([2]; LEWxBN rats): 0.230
- T-test value PHOS ([2]; LEWxBN rats): 0.063
- T-test value TBILI ([2]; LEWxBN rats): 0.463
- T-test value TP ([2]; LEWxBN rats): 0.148
- T-test value TRIG ([2]; LEWxBN rats): 0.085
- T-test value ALB ([2]; LEWxF344 rats): 0.534
- T-test value ALP ([2]; LEWxF344 rats): 0.214
- T-test value ALT ([2]; LEWxF344 rats): 0.979
- T-test value ANION GAP ([2]; LEWxF344 rats): 0.711
- T-test value AST ([2]; LEWxF344 rats): 0.739
- T-test value BICARB ([2]; LEWxF344 rats): 0.596
- T-test value BUN ([2]; LEWxF344 rats): 0.000
- T-test value CA ([2]; LEWxF344 rats): 0.448
- T-test value CHOL ([2]; LEWxF344 rats): 0.000
- T-test value CREAT ([2]; LEWxF344 rats): 0.000
- T-test value GLOB ([2]; LEWxF344 rats): 0.361
- T-test value GLU ([2]; LEWxF344 rats): 0.695
- T-test value K ([2]; LEWxF344 rats): 0.152
- T-test value NA ([2]; LEWxF344 rats): 0.738
- T-test value PHOS ([2]; LEWxF344 rats): 0.831
- T-test value TBILI ([2]; LEWxF344 rats): 0.663
- T-test value TP ([2]; LEWxF344 rats): 0.492
- T-test value TRIG ([2]; LEWxF344 rats): 0.540
- T-test value ALB ([2]; Panel (all six strains)): 0.000
- T-test value ALP ([2]; Panel (all six strains)): 0.000
- T-test value ALT ([2]; Panel (all six strains)): 0.693
- T-test value ANION GAP ([2]; Panel (all six strains)): 0.014
- T-test value AST ([2]; Panel (all six strains)): 0.227
- T-test value BICARB ([2]; Panel (all six strains)): 0.000
- T-test value BUN ([2]; Panel (all six strains)): 0.000
- T-test value CA ([2]; Panel (all six strains)): 0.974
- T-test value CHOL ([2]; Panel (all six strains)): 0.000
- T-test value CREAT ([2]; Panel (all six strains)): 0.000
- T-test value GGT ([2]; Panel (all six strains)): 0.024
- T-test value GLOB ([2]; Panel (all six strains)): 0.016
- T-test value GLU ([2]; Panel (all six strains)): 0.561
- T-test value K ([2]; Panel (all six strains)): 0.000
- T-test value NA ([2]; Panel (all six strains)): 0.414
- T-test value PHOS ([2]; Panel (all six strains)): 0.004
- T-test value TBILI ([2]; Panel (all six strains)): 0.027
- T-test value TP ([2]; Panel (all six strains)): 0.487
- T-test value TRIG ([2]; Panel (all six strains)): 0.058
- T-test value ALB ([2]; WKYxBN rats): 0.337
- T-test value ALP ([2]; WKYxBN rats): 0.956
- T-test value ALT ([2]; WKYxBN rats): 0.222
- T-test value ANION GAP ([2]; WKYxBN rats): 0.485
- T-test value AST ([2]; WKYxBN rats): 0.189
- T-test value BICARB ([2]; WKYxBN rats): 0.649
- T-test value BUN ([2]; WKYxBN rats): 0.001
- T-test value CA ([2]; WKYxBN rats): 0.064
- T-test value CHOL ([2]; WKYxBN rats): 0.000
- T-test value CREAT ([2]; WKYxBN rats): 0.002
- T-test value GGT ([2]; WKYxBN rats): 0.170
- T-test value GLOB ([2]; WKYxBN rats): 0.007
- T-test value GLU ([2]; WKYxBN rats): 0.968
- T-test value K ([2]; WKYxBN rats): 0.014
- T-test value NA ([2]; WKYxBN rats): 0.165
- T-test value PHOS ([2]; WKYxBN rats): 0.081
- T-test value TBILI ([2]; WKYxBN rats): 0.379
- T-test value TP ([2]; WKYxBN rats): 0.458
- T-test value TRIG ([2]; WKYxBN rats): 0.210
- T-test value ALB ([2]; WKYxF344 rats): 0.001
- T-test value ALP ([2]; WKYxF344 rats): 0.000
- T-test value ALT ([2]; WKYxF344 rats): 0.604
- T-test value ANION GAP ([2]; WKYxF344 rats): 0.868
- T-test value AST ([2]; WKYxF344 rats): 0.934
- T-test value BICARB ([2]; WKYxF344 rats): 0.004
- T-test value BUN ([2]; WKYxF344 rats): 0.000
- T-test value CA ([2]; WKYxF344 rats): 0.037
- T-test value CHOL ([2]; WKYxF344 rats): 0.004
- T-test value CREAT ([2]; WKYxF344 rats): 0.000
- T-test value GLOB ([2]; WKYxF344 rats): 0.007
- T-test value GLU ([2]; WKYxF344 rats): 0.155
- T-test value K ([2]; WKYxF344 rats): 0.583
- T-test value NA ([2]; WKYxF344 rats): 0.872
- T-test value PHOS ([2]; WKYxF344 rats): 0.282
- T-test value TBILI ([2]; WKYxF344 rats): 0.008
- T-test value TP ([2]; WKYxF344 rats): 0.054
- T-test value TRIG ([2]; WKYxF344 rats): 0.041
- T-test value ALB ([2]; WKYxLEW rats): 0.453
- T-test value ALP ([2]; WKYxLEW rats): 0.342
- T-test value ALT ([2]; WKYxLEW rats): 0.874
- T-test value ANION GAP ([2]; WKYxLEW rats): 0.033
- T-test value AST ([2]; WKYxLEW rats): 0.689
- T-test value BICARB ([2]; WKYxLEW rats): 0.266
- T-test value BUN ([2]; WKYxLEW rats): 0.009
- T-test value CA ([2]; WKYxLEW rats): 0.870
- T-test value CHOL ([2]; WKYxLEW rats): 0.019
- T-test value CREAT ([2]; WKYxLEW rats): 0.025
- T-test value GGT ([2]; WKYxLEW rats): 0.363
- T-test value GLOB ([2]; WKYxLEW rats): 0.057
- T-test value GLU ([2]; WKYxLEW rats): 0.289
- T-test value K ([2]; WKYxLEW rats): 0.137
- T-test value NA ([2]; WKYxLEW rats): 1.000
- T-test value PHOS ([2]; WKYxLEW rats): 0.055
- T-test value TBILI ([2]; WKYxLEW rats): 0.364
- T-test value TP ([2]; WKYxLEW rats): 0.008
- T-test value TRIG ([2]; WKYxLEW rats): 0.677
